Assays:
C57B1/6J males = test: Social Interaction Test after chronic social subjugation; format: in vivo, mouse; conditions: for Distance (traveled in the interaction zone, difference score Post-Pretest) / Time (in the interaction zone, difference score Post-Pretest): mice after 10 day defeat, daily i.p. for 28 days, AVN246-HCl 2 mg/kg, chlordiazepoxide 10 mg/kg
Excerpt: Mouse Chronic Subordination Model of Depression. Social stress is a factor in the etiology of several psychopathologies, with individuals differing in vulnerability. Adult male mice are subjected to a model of chronic psychosocial stress in which resident/intruder dyads live chronically in sensory contact and physically interact on a daily basis.
Anti-depressant Effect in the Social Interaction Test. […] A rapid subjugation paradigm in mice lead to diminished social interaction behavior, where the dependent measures are distance traveled and time in the Interaction Zone. […] These observations are consistent with the subordination/social interaction model as a rapid behavioral screen for potential antidepressants. Additional details are described in Berton et al. (2006).
Briefly, C57B1/6J males were defeated daily for 10 days by resident, highly aggressive CF-1 males. After 5 minutes of direct exposure, a perforated plastic partition was inserted into the cage that allowed olfactory and visual contact without physical defeat for the remaining 23 hr 55 min each day. The C57 males were exposed to a different resident male in a different cage each day to increase the stress of the procedure (it was observed that all CF-1 males attacked the intruder each day). At the end of the 10 day defeat procedure, the C57 males were tested in an open field apparatus during the dark phase. A dominant male was caged in an area of the open field apparatus termed the “social interaction zone.” Time and distance traveled in the zone were recorded. The C57 males were then divided randomly among the following treatments: AVN246-HCl (2 mg/kg), saline vehicle (0.45%), or chlordiazepoxide (10 mg/kg). Treatments were given daily (i.p.) for 28 days and the animals were retested. Behavioral changes were determined by calculating difference scores (Post-Pretest) and these scores were analyzed.

human V1a receptor = target: T1, human V1a receptor (Homo sapiens, UniProt P37288); test: Human vasopressin V1a receptor binding assay (3H-AVP competition, hV1a cell line); conditions: CHO cells expressing human V1a, 1 nM 3H-AVP; for IC50: read-out: V1a Binding Affinity IC50; for Ki: read-out: V1a Ki
T1 construct: host or cells: CHO cells
Experimental: Human vasopression V1a receptor binding assay. A cell line expressing the human V1a receptor in CHO cells (henceforth referred to as the hV1a cell line) was obtained from Dr. Michael Brownstein, NIMH, Bethesda, Md., USA. The hV1a cDNA sequence is described by Thibonnier et al., Journal of Biological Chemistry, 269, 3304-3310 (1994), and the expression method was the same as described by Morel et al. (1992). The hV1a cell line was grown in alpha-MEM with 10% fetal bovine serum and 250 ug/ml G418 (Gibco, Grand Island, N.Y., USA). For competitive binding assay, hV1a cells were plated into 6-well culture plate at 1:10 dilution from a confluency flask, and maintained in culture for at least two days. Culture medium was then removed, cells were washed with 2 ml binding buffer (25 mM Hepes, 0.25% BSA, 1×DMEM, PH=7.0). To each well, 990 μl binding buffer containing 1 nM 3H-AVP was added, and followed by 10 μl series diluted Example compounds dissolved in DMSO. […] 100 nM cold AVP (Sigma) was used to assess non-specific binding. Cells were incubated for 45 minutes at 37° C., assay mixture was removed and each well was washed three times with PBS (pH=7.4). 1 ml 2% SDS was added per well and plates were let sit for 30 minutes. The whole content in a well was transferred to a scintillation vial. Each well was rinsed with 0.5 ml PBS which was then added to the corresponding vial. Scintillation fluid (Ecoscint, National Diagnostics, Atlanta, Ga.) was then added at 3 ml per vial. Samples were counted in a liquid scintillation counter (Beckman LS3801). IC50 values were calculated by Prism Curve fitting software.
All of the alkanedioic esters and amides exemplified in the foregoing examples dissolved in DMSO were tested in this assay. Binding curves were generated according to methods described by Thibonnier et al. (1994). [^3H]-AVP was added to the hV1a cell cultures followed by 10-fold dilutions of each test compound.

T1 sequence (P37288 whole entry): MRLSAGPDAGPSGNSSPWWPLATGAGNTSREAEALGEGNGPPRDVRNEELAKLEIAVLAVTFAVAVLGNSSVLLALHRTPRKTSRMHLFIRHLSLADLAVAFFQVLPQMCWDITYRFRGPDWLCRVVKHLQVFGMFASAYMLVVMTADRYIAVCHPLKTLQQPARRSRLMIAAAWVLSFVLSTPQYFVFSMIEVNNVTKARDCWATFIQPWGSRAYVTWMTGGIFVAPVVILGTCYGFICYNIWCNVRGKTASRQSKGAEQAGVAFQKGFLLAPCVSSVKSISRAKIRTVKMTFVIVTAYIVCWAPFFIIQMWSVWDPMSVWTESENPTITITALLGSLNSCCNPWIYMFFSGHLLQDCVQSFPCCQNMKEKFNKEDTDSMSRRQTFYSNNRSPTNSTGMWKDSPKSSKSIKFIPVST

SMILES	IC50 (human V1a receptor)	Ki (human V1a receptor)	further results
CC(NC(=O)C(CC(=O)N1CCC(N2CCCCC2)CC1)N1C(=O)C(N2C(=O)OCC2c2ccccc2)C1C=Cc1ccccc1)c1ccccc1.Cl (stereo not shown) [AVN246-HCl]			Distance (traveled in the interaction zone, difference score Post-Pretest) (C57B1/6J males): 22 ± 6; Time (in the interaction zone, difference score Post-Pretest) (C57B1/6J males): 35 ± 10; effect on deficits in social interaction produced by chronic subordination (C57B1/6J males; mice, 28-day treatment regimen): significantly increased both distance traveled and time in the interaction zone
C[C@@H](NC(=O)[C@@H](CC(=O)N1CCC(N2CCCCC2)CC1)N1C(=O)[C@@H](N2C(=O)OC[C@@H]2c2cccc(Cl)c2)[C@H]1/C=C/c1ccccc1)c1ccccc1 [Example 256]	2.8 nM	1.7 nM	
O=C(NCc1cc(C(F)(F)F)ccc1F)[C@H](CCC(=O)N1CCN(C2CCCCC2)CC1)N1C(=O)[C@@H](N2C(=O)OC[C@@H]2c2ccccc2)[C@H]1/C=C/c1ccccc1 [Example 177]		0.41 nM	
CC(C(=O)NCc1cccc(C(F)(F)F)c1)(C(=O)N1CCC(N2CCCCC2)CC1)N1C(=O)[C@@H](N2C(=O)OC[C@@H]2c2ccccc2)[C@H]1/C=C/c1ccccc1 (mixture of isomers) [Example 234, (2RS)-[4-(piperidinyl)piperidinylcarbonyl]-2-methyl-2-[3(S)-(4(S)-phenyloxazolidin-2-on-3-yl)-4(R)-(2-styryl)azetidin-2-on-1-yl]acetic acid N-(3-trifluoromethylbenzyl)amide]	2.37 nM	1.45 nM	
O=C(CCC(C(=O)NCc1cccc(C(F)(F)F)c1)N1C(=O)C(N2C(=O)OCC2c2ccccc2)C1C=Cc1ccccc1)NCCN1CCCCC1 (stereo not shown) [Example 87]	15 nM		
O=C(NCc1cccc(C(F)(F)F)c1)[C@H](CCC(=O)N1CCC(CN2CCCCC2)CC1)N1C(=O)[C@@H](N2C(=O)OC[C@@H]2c2ccccc2)[C@H]1/C=C/c1ccccc1 [Example 120E]	3.2 nM	1.95 nM	
O=C(NC1CCc2ccccc21)C(CCC(=O)N1CCN(C2CCCCC2)CC1)N1C(=O)C(N2C(=O)OCC2c2ccccc2)C1C=Cc1ccccc1 (mixture of isomers) [Example 216]	1.83 nM	1.12 nM	
CNC1=Nc2ccc(Cl)cc2C(c2ccccc2)=[N+]([O-])C1 [CDP, chlordiazepoxide]			Distance (traveled in the interaction zone, difference score Post-Pretest) (C57B1/6J males): 1.0 ± 5; Time (in the interaction zone, difference score Post-Pretest) (C57B1/6J males): 0.0 ± 5^
O=C(NCc1cccc(Cl)c1Cl)[C@H](CCC(=O)N1CCN(C2CCCCC2)CC1)N1C(=O)[C@@H](N2C(=O)OC[C@@H]2c2ccccc2)[C@H]1/C=C/c1ccccc1 [Example 176]		0.38 nM	
O=C(NCc1cc(Cl)cc(Cl)c1)[C@H](CCC(=O)N1CCN(C2CCCCC2)CC1)N1C(=O)[C@@H](N2C(=O)OC[C@@H]2c2ccccc2)[C@H]1/C=C/c1ccccc1 [Example 185]	1.27 nM	0.82 nM	
O=C(NCc1cccc(C(F)(F)F)c1)C(CC(=O)N1CCN(CCN2CCCC2)CC1)N1C(=O)C(N2C(=O)OCC2c2ccccc2)C1C=Cc1ccccc1 (stereo not shown) [Example 78]	< 100 nM		
O=C(NCc1ccccc1C(F)(F)F)[C@H](CCC(=O)N1CCN(C2CCCCC2)CC1)N1C(=O)[C@@H](N2C(=O)OC[C@@H]2c2ccccc2)[C@H]1/C=C/c1ccccc1 [Example 182]		0.93 nM	
O=C(N[C@@H]1CCCc2ccccc21)[C@H](CCC(=O)N1CCN(C2CCCCC2)CC1)N1C(=O)[C@@H](N2C(=O)OC[C@@H]2c2ccccc2)[C@H]1/C=C/c1cccs1 [Example 255]	1.9 nM	1.2 nM	
CCCCN(Cc1ccccc1)C(=O)[C@H](CCC(=O)N1CCN(C2CCCCC2)CC1)N1C(=O)[C@@H](N2C(=O)OC[C@@H]2c2ccccc2)[C@H]1/C=C/c1ccccc1 [Example 198]	~100 nM		
O=C(NCc1cc(F)cc(C(F)(F)F)c1)[C@H](CCC(=O)N1CCN(C2CCCCC2)CC1)N1C(=O)[C@@H](N2C(=O)OC[C@@H]2c2ccccc2)[C@H]1/C=C/c1ccccc1 [Example 179]		0.51 nM	
O=C(NCc1cccc(C(F)(F)F)c1)[C@H](CCC(=O)N1CCN(C2CCCCC2)CC1)N1C(=O)[C@@H](N2C(=O)OC[C@@H]2c2ccccc2)[C@H]1/C=C/c1ccccc1 [Example 120H]	2.75 nM	1.68 nM	
O=C(C(COCc1ccccc1)N1C(=O)C(N2C(=O)OCC2c2ccccc2)C1C=Cc1ccccc1)N1CCC(CN2CCCCC2)CC1 (stereo not shown) [Example 233A]		11.6 nM	
O=C(NCc1cccc(Cl)c1)[C@H](CCC(=O)N1CCN(C2CCCCC2)CC1)N1C(=O)[C@@H](N2C(=O)OC[C@@H]2c2ccccc2)[C@H]1/C=C/c1ccccc1 [Example 187]		0.66 nM	
O=C(NCc1cccc(C(F)(F)F)c1F)[C@H](CCC(=O)N1CCN(C2CCCCC2)CC1)N1C(=O)[C@@H](N2C(=O)OC[C@@H]2c2ccccc2)[C@H]1/C=C/c1ccccc1 [Example 180]		0.2 nM	
CN(Cc1cccc(C(F)(F)F)c1)C(=O)[C@@H](CC(=O)N1CCC(N2CCCCC2)CC1)N1C(=O)[C@@H](N2C(=O)OC[C@@H]2c2ccccc2)[C@H]1/C=C/c1cccc(Cl)c1 [Example 247]	0.6 nM	0.39 nM	
O=C(N[C@@H]1CCCc2ccccc21)[C@H](CCC(=O)N1CCN(C2CCCCC2)CC1)N1C(=O)[C@@H](N2C(=O)OC[C@@H]2c2ccccc2)[C@H]1/C=C/c1ccco1 [Example 254]	10 nM	6.2 nM	
O=C(NCc1cc(C(F)(F)F)cc(C(F)(F)F)c1)[C@H](CCC(=O)N1CCN(C2CCCCC2)CC1)N1C(=O)[C@@H](N2C(=O)OC[C@@H]2c2ccccc2)[C@H]1/C=C/c1ccccc1 [Example 188]		4.45 nM	

— patent US9376424B2, “Methods for treating post traumatic stress disorder” (AZEVAN PHARMACEUTICALS, INC., priority 2010, dated 2016)
